Legend:
[1] = target: Multidrug resistance associated protein (Homo sapiens) (UniProt Q96QA9); assay: (§1) TP_TRANSPORTER: RT-PCR in HepG2 cells; assay type: functional, cell-based
[2] = target: T1, Multidrug resistance-associated protein 1 (Homo sapiens, UniProt P33527); assay: TP_TRANSPORTER: Northern blot from MCF-7 cells; assay type: functional, cell-based; conditions: mcf7
[3] = target: T2, ATP-binding cassette sub-family C member 2 (Rattus norvegicus, UniProt Q63120); assay: TP_TRANSPORTER: Western blot, primary hepatocytes; assay type: functional, cell-based, Hepatocyte
T2 sequence (Q63120 whole entry): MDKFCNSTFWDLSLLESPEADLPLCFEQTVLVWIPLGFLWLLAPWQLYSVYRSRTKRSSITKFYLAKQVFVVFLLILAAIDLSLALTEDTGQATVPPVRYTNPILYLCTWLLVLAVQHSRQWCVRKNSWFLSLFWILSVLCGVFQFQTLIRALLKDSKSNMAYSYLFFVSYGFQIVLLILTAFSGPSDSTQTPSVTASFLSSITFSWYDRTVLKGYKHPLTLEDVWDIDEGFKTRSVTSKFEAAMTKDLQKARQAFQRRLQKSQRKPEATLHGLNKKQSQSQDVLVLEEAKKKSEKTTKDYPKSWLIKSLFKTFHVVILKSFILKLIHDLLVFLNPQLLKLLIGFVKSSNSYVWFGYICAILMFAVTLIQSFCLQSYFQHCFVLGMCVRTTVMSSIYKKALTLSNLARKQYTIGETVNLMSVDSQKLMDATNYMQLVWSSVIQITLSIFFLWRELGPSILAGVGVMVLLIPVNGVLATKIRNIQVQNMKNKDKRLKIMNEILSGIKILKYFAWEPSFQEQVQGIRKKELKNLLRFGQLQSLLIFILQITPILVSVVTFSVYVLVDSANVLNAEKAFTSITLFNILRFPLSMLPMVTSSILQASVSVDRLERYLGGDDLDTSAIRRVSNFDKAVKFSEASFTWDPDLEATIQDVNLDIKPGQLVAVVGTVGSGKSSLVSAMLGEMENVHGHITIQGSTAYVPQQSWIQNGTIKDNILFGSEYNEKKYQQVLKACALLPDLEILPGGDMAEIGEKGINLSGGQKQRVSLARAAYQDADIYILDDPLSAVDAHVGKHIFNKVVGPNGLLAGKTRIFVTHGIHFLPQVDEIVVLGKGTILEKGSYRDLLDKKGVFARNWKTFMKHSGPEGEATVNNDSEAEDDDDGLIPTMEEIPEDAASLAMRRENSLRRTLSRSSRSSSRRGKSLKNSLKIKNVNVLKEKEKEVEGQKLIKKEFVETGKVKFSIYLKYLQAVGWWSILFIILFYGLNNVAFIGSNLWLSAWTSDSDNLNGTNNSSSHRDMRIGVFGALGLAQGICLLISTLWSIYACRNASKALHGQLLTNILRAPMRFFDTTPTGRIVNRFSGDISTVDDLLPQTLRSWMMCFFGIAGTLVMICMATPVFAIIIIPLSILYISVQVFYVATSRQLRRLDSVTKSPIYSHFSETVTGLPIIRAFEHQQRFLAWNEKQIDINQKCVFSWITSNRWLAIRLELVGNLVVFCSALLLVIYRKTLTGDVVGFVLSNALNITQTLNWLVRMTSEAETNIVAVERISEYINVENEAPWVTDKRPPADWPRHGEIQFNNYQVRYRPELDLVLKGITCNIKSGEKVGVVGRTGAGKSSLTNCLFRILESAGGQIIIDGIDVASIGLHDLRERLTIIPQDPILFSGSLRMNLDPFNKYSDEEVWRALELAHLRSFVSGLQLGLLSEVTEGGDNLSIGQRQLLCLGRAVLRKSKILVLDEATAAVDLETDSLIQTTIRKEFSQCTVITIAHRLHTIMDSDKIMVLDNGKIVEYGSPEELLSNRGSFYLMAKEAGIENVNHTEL

[4] = target: T1, Multidrug resistance-associated protein 1; assay: TP_TRANSPORTER: Western blot, MCF-7 cells; assay type: functional, cell-based; conditions: mcf7
[5] = target: T2, ATP-binding cassette sub-family C member 2; assay: TP_TRANSPORTER: Northern blot from primary hepatocytes; assay type: functional, cell-based, Hepatocyte
[6] = target: ATP-binding cassette sub-family C member 5 (Homo sapiens, UniProt O15440); assay: as §1; assay type: functional, cell-based
Sequence of ATP-binding cassette sub-family C member 5 (O15440 whole entry): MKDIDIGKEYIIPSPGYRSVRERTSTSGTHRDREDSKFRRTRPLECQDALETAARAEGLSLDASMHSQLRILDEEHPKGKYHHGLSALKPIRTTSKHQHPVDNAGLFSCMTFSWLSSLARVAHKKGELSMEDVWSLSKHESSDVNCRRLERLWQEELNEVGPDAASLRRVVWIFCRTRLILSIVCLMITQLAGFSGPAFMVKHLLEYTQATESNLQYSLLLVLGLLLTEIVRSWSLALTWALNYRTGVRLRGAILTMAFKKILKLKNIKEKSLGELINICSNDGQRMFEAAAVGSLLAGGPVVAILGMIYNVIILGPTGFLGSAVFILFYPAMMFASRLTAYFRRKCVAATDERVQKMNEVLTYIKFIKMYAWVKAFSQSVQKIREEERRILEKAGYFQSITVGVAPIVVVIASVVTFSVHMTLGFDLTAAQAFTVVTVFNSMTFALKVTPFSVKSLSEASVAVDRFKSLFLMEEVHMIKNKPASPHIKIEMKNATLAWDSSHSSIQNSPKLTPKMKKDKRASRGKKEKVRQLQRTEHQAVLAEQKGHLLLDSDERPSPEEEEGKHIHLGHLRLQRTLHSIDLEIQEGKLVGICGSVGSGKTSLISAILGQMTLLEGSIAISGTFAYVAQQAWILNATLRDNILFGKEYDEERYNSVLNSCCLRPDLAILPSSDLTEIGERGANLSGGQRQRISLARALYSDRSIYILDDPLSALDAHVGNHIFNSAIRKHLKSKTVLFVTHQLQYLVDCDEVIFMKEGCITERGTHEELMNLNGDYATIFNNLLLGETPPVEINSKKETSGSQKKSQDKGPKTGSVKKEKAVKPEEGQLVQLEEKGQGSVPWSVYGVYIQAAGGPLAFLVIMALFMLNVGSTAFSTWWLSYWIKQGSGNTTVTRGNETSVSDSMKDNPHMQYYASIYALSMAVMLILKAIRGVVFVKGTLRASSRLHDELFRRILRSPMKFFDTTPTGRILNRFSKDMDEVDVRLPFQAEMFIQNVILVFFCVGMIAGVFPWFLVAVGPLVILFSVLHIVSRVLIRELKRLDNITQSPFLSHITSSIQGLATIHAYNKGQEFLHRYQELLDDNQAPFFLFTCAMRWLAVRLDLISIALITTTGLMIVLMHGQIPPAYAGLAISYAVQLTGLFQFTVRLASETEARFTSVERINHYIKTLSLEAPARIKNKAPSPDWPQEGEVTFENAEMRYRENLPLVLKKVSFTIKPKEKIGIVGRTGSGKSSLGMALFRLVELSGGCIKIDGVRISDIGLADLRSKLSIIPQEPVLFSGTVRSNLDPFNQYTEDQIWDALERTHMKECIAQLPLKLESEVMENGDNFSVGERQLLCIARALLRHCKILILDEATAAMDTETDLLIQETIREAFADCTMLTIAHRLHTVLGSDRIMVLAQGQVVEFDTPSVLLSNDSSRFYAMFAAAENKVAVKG

[7] = target: T3, ATP-binding cassette sub-family C member 2 (Homo sapiens, UniProt Q92887); assay: as §1; assay type: functional, cell-based
T3 sequence (Q92887 whole entry): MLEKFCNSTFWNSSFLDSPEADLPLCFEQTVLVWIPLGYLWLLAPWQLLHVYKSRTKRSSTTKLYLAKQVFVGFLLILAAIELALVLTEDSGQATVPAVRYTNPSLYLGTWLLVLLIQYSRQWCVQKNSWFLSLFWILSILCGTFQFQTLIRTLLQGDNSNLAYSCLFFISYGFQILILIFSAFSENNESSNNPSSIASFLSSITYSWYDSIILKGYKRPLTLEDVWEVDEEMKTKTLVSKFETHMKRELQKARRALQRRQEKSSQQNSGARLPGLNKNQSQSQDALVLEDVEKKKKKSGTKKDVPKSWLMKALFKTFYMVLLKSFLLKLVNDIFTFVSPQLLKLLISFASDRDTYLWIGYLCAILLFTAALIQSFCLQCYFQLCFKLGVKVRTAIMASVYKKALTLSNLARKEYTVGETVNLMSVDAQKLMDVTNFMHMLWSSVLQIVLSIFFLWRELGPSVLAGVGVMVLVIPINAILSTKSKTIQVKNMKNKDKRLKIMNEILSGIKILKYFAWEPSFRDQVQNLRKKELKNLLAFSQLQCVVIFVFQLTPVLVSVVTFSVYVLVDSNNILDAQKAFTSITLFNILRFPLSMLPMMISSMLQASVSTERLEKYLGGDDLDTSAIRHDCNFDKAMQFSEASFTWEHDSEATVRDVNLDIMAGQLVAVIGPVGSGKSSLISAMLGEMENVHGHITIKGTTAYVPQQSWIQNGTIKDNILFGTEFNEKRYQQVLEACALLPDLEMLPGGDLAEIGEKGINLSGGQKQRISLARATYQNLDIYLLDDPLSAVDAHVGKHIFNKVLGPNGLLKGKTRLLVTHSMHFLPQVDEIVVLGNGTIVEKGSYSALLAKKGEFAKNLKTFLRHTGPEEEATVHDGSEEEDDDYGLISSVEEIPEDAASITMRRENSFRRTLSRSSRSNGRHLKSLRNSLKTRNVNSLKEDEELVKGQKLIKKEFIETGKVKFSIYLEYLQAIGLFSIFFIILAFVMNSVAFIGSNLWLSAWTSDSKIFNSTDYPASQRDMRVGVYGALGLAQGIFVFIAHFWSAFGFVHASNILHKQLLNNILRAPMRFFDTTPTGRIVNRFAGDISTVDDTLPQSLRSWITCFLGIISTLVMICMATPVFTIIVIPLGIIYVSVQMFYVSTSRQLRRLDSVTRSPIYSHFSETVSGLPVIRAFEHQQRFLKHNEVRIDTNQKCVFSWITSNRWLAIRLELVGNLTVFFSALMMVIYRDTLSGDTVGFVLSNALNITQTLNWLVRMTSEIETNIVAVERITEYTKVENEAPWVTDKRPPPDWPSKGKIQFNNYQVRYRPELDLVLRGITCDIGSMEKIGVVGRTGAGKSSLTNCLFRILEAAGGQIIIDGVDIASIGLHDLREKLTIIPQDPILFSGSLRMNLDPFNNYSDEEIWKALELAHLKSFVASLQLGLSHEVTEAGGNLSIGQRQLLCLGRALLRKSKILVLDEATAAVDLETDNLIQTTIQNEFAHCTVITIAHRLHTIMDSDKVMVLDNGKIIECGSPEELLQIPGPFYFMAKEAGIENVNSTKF

[8] = target: T3, ATP-binding cassette sub-family C member 2; assay: TP_TRANSPORTER: Northern blot from HepG2 cells; assay type: functional, cell-based

Compound	Activity [3]	Activity [5]	Activity [6]	further results
CISPLATIN [listing 1 of 2 here]	–	–	–	Activity [1]: inducer [+]
CC[C@]1(O)C[C@@H]2CN(CCc3c([nH]c4ccccc34)[C@@](C(=O)OC)(c3cc4c(cc3OC)N(C)[C@H]3[C@@](O)(C(=O)OC)[C@H](OC(C)=O)[C@]5(CC)C=CCN6CC[C@]43[C@@H]65)C2)C1 [VINBLASTINE]	inducer [+]	inducer [+]	–	Activity [2]: inducer [+]; Activity [4]: inducer [+]
C[C@@H]1C[C@H]2[C@@H]3CCC4=CC(=O)C=C[C@]4(C)[C@@]3(F)[C@@H](O)C[C@]2(C)[C@@]1(O)C(=O)CO [DEXAMETHASONE]	inducer [+]	inducer [+]	–	–
CISPLATIN [listing 2 of 2 here]	inducer [+]	inducer [+]	inducer [+]	Activity [7]: inducer [+]
CC(=O)Nc1ccc2c(c1)Cc1ccccc1-2 [2-ACETYLAMINOFLUORENE]	inducer [+]	inducer [+]	inducer [+]	Activity [1]: inducer [+]; Activity [8]: inducer [+]
CCC1(c2ccccc2)C(=O)NC(=O)NC1=O [PHENOBARBITAL]	–	–	–	Activity [8]: inducer [+]
CC(C)(C)c1cc(O)ccc1O [E319]	–	–	–	Activity [2]: inducer [+]; Activity [4]: inducer [+]
CO[C@H]1/C=C/O[C@@]2(C)Oc3c(C)c(O)c4c(O)c(c(/C=N/N5CCN(C)CC5)c(O)c4c3C2=O)NC(=O)/C(C)=C\C=C\[C@H](C)[C@H](O)[C@@H](C)[C@@H](O)[C@@H](C)[C@H](OC(C)=O)[C@@H]1C [RIFAMPIN]	–	–	inducer [+]	–

— ChEMBL document CHEMBL2074328, “Up-regulation of transporters of the MRP family by drugs and toxins” (Toxicol Lett, 2001)
